Measured values from publication PMC9137622, “OPDAylation of Thiols of the Redox Regulatory Network In Vitro” (Antioxidants, 2022).
Each block holds one compound with its values, some of them ahead of it.

What was measured:
TRX-h3 = biological target: T1, TRX-h3 (Arabidopsis thaliana, UniProt Q42403); assay: coupled GPXL8 H2O2 reduction, NADPH oxidation at […] nm; assay type: biochemical; settings: covalent; 20 µM reduced protein preincubated with 150 µM OPDA 1 h, then 0.25 µM in NTRA/GPXL8 assay, pH 7.5
T1 construct: gene TRX3
T1 sequence (Q42403 1-118 limits assumed): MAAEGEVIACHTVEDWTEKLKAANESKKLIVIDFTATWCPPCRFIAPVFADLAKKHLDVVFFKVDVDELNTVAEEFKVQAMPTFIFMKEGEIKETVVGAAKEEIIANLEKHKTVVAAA

TRX-m4 [1] = biological target: T2, TRX-m4 (Arabidopsis thaliana, UniProt Q9SEU6); assay: HPLC depletion of free OPDA, mPEG-maleimide shift; assay type: binding; settings: covalent; 200 µM OPDA, 50 or 100 µM reduced protein, pH 7.2, at least 2 h, RT
T2 construct: gene At3g15360; His-tagged, E. coli, Ni-NTA
T2 sequence (Q9SEU6 83-193): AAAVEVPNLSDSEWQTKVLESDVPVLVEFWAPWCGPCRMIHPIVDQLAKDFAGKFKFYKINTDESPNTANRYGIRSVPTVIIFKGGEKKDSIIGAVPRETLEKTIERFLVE

TRX-h5 [2] = biological target: T3, TRX-h5 (Arabidopsis thaliana, UniProt Q39241); assay: coupled GPXL8 H2O2 reduction, NADPH oxidation at […] nm; assay type: biochemical; settings: covalent; 20 µM reduced protein preincubated with 150 µM OPDA 1 h, then 0.25 µM in NTRA/GPXL8 assay, pH 7.5
T3 construct: gene TRX5
T3 sequence (Q39241 1-118 limits assumed): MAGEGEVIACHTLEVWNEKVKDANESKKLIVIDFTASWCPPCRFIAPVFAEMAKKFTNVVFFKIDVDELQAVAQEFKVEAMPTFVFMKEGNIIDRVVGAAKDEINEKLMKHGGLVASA

TRX-f1 = biological target: T4, TRX-f1 (Arabidopsis thaliana, UniProt Q9XFH8); assay: HPLC depletion of free OPDA, mPEG-maleimide shift; assay type: binding; settings: covalent; 200 µM OPDA, 50 or 100 µM reduced protein, pH 7.2, at least 2 h, RT
T4 construct: gene At3g02730; His-tagged, E. coli, Ni-NTA
T4 sequence (Q9XFH8 58-178): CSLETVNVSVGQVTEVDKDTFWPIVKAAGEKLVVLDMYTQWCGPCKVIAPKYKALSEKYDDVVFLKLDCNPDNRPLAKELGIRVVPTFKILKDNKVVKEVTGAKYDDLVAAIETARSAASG

TRX-h5 [3] = biological target: T3, TRX-h5; assay: HPLC depletion of free OPDA, mPEG-maleimide shift; assay type: binding; settings: covalent; 200 µM OPDA, 50 or 100 µM reduced protein, pH 7.2, at least 2 h, RT
TRX-m4 [4] = biological target: T2, TRX-m4; assay: coupled GPXL8 H2O2 reduction, NADPH oxidation at […] nm; assay type: biochemical; settings: covalent; 20 µM reduced protein preincubated with 150 µM OPDA 1 h, then 5 µM in NTRA/GPXL8 assay, pH 7.5
PRXIIB = biological target: T5, PRXIIB (Arabidopsis thaliana, UniProt Q9XEX2); assay: coupled H2O2 reduction (GR/GSH/GRXC2), NADPH oxidation at […] nm; assay type: biochemical; settings: 20 µM reduced PRXIIB preincubated with 150 µM OPDA 1 h, then 3 µM in assay, pH 7.5; weak effect
T5 sequence (Q9XEX2 1-162): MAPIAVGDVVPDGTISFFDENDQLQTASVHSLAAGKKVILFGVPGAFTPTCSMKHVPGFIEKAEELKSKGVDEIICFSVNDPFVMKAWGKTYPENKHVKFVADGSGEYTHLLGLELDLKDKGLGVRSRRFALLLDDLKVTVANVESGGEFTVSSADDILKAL

GRX-C2 = biological target: T6, GRX-C2 (Arabidopsis thaliana, UniProt Q9FNE2); assay: HED assay, NADPH oxidation at […] nm; assay type: biochemical; settings: 2 mM GSH, 0.7 mM HED, 1 µM GR, 0.1 µM GRX, pH 7.5, RT
T6 construct: gene GRXC2

GAPC2 = biological target: T7, GAPC2 (Arabidopsis thaliana, UniProt Q9FX54); assay: NADH consumption at […] nm, PGK-coupled; assay type: biochemical; settings: 8 mM 3-PGA, 4 mM ATP, 90 nM PGK, pH 7.8, RT
T7 construct: His10-tagged, E. coli, Ni-NTA
T7 sequence (Q9FX54 whole entry): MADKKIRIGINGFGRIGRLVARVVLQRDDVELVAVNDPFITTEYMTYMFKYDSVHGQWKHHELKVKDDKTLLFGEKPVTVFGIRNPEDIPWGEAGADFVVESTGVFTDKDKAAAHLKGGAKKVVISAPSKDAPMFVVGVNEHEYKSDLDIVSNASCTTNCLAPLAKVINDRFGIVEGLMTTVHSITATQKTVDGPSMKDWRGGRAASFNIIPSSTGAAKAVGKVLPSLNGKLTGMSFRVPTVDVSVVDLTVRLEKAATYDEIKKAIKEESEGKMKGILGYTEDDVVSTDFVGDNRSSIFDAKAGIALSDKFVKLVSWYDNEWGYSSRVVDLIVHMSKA

T6 sequence (Q9FNE2 whole entry): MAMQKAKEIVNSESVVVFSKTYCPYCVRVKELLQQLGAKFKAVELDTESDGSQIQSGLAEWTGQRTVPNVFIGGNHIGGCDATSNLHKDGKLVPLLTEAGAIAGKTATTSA

inhibition (TRX-h3): ~ 80%
inhibition (TRX-h5 [2]): ~ 80%
inhibition (TRX-m4 [4]): ~ 60%
Compound: CC/C=C\C[C@@H]1C(=O)C=C[C@@H]1CCCCCCCC(=O)O [OPDA, cis-(+)-12-oxophytodienoic acid]
HPLC depletion of free OPDA, mPEG-maleimide shift (TRX-m4 [1]): three thiols in the case of TRX-f1 and TRX-m4
HPLC depletion of free OPDA, mPEG-maleimide shift (TRX-f1): three thiols in the case of TRX-f1 and TRX-m4
HPLC depletion of free OPDA, mPEG-maleimide shift (TRX-h5 [3]): two thiols reacted with OPDA in the case of TRX-h3 and TRX-h5
inhibition (PRXIIB): OPDA seems to act directly on PRXIIB at a low level

Compound: OCCSSCCO [HED, hydroxyethyldisulfide]
HED assay, NADPH oxidation at 340 nm (GRX-C2): HED assay to determine GRX-dependent reduction activity

Compound: NC(=O)C1=CN([C@@H]2O[C@H](COP(=O)(O)OP(=O)(O)OC[C@H]3O[C@@H](n4cnc5c(N)ncnc54)[C@H](O)[C@@H]3O)[C@@H](O)[C@H]2O)C=CC1 [NADH]
NADH consumption at 340 nm, PGK-coupled (GAPC2): coupled activity of phosphoglycerate kinase and GAPDH was measured as consumption of NADH
